Data taken from ChEMBL document CHEMBL3124894, “Lactam sulfonamides as potent inhibitors of the Kv1.5 potassium ion channel” (Bioorg Med Chem Lett, 2014).

What was measured:
[1] = target: T1, Potassium voltage-gated channel subfamily A member 5 (Homo sapiens, UniProt P22460); assay: Inhibition of human Kv1.5 ion channel expressed in CHO cells by patch clamp assay; format: cell-based
[2] = Lipophilicity, log D of the compound by chromatography; format: physicochemical
[3] = Oral bioavailability in Sprague-Dawley rat at 6 umol/kg; format: ADME, organism-based; conditions: in vivo
Oryctolagus cuniculus [4] = assay: Antiarrhythmic activity in New Zealand white rabbit assessed as unbound steady-state plasma concentration giving 20% change in atrium effective refractory period at 0.1 to 1 umol/kg/min administered as infusion; format: functional
[5] = Clearance in Sprague-Dawley rat at 2 umol/kg, iv and 6 umol/kg, po; format: ADME, organism-based; conditions: in vivo
[6] = Terminal half life in Sprague-Dawley rat at 2 umol/kg, iv and 6 umol/kg, po; format: ADME, organism-based; conditions: in vivo, read-out: beta t1/2 (converted)
[7] = Clearance in Beagle dog at 1 umol/kg, iv and 2 umol/kg, po; format: ADME, organism-based, Canis lupus familiaris; conditions: in vivo
Oryctolagus cuniculus [8] = assay: Toxicity in New Zealand white rabbit assessed as CNS-like side effects at 0.1 to 1 umol/kg/min administered as infusion; format: organism-based; conditions: in vivo, iv
[9] = Oral bioavailability in Beagle dog at 2 umol/kg; format: ADME, organism-based, Canis lupus familiaris; conditions: in vivo
Oryctolagus cuniculus [10] = assay: Cardiotoxicity in New Zealand white rabbit assessed as QT interval at 0.1 to 1 umol/kg/min administered as infusion; format: toxicity, organism-based; conditions: in vivo, iv
[11] = Terminal half life in Beagle dog at 1 umol/kg, iv and 2 umol/kg, po; format: ADME, organism-based, Canis lupus familiaris; conditions: in vivo, read-out: beta t1/2 (converted)
[12] = Intrinsic clearance in human liver microsomes assessed per mg protein; format: ADME; conditions: read-out: CLH
[13] = target: T1, Potassium voltage-gated channel subfamily A member 5; assay: Inhibition of Kv1.5 ion channel (unknown origin) expressed in CHO cells by Rb(+) efflux assay; format: cell-based

T1 sequence (P22460 whole entry): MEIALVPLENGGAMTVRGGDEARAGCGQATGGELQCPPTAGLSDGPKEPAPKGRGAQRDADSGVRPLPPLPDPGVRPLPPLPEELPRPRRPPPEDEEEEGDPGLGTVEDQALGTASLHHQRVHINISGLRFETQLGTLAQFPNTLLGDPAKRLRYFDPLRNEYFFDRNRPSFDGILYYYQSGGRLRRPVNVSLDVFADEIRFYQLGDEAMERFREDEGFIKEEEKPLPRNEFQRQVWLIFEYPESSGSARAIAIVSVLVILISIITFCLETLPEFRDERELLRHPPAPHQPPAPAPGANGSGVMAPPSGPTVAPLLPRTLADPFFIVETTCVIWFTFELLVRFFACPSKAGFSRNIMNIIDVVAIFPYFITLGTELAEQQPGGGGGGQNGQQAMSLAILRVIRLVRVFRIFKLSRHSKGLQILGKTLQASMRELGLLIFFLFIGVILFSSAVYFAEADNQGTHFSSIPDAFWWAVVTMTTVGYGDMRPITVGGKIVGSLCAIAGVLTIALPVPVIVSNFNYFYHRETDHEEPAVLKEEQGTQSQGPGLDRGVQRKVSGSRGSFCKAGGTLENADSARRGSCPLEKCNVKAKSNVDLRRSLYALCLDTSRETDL

IC50 [1]	chromatographic logD [2]	SMILES	other results
7.6 µM	2.9	N#Cc1cccc(S(=O)(=O)N(Cc2ccc(F)cc2)C[C@@H]2CCCC(=O)N2)c1	
2.7 µM	2.9	N#Cc1cccc(S(=O)(=O)N(CC[C@@H]2CCC(=O)N2)Cc2ccc(F)cc2)c1	
0.81 µM	3.1	CN1C(=O)CC[C@H]1CN(Cc1ccc(F)cc1)S(=O)(=O)c1cccc(C#N)c1	
2.8 µM	3.5	CCN1C(=O)CC[C@H]1CN(Cc1ccc(F)cc1)S(=O)(=O)c1cccc(C#N)c1	
> 10 µM	2.9	N#Cc1cccc(S(=O)(=O)N(CCc2ccc(F)cc2)C[C@@H]2CCC(=O)N2)c1	
2.2 µM	3.1	N#Cc1cccc(S(=O)(=O)N(Cc2ccc(Cl)cc2)C[C@@H]2CCC(=O)N2)c1	
4.3 µM	3	N#Cc1cccc(S(=O)(=O)N(Cc2cccc(Cl)c2)C[C@@H]2CCC(=O)N2)c1	
> 10 µM	2.7	N#Cc1cccc(S(=O)(=O)N(Cc2ccccc2Cl)C[C@@H]2CCC(=O)N2)c1	
0.21 µM	3.6	CN1C(=O)CC[C@H]1CN(Cc1ccc(Cl)cc1)S(=O)(=O)c1cccc(C#N)c1	bioavailability [3]: 45%; Cp(f)ss (Oryctolagus cuniculus [4]): 0.35 µM; clearance [5]: 45 mL/min/kg; half-life [6]: 31.8 min; clearance [7]: 31 mL/min/kg; Activity (Oryctolagus cuniculus [8]): Non-toxic; bioavailability [9]: 44%; Time (Oryctolagus cuniculus [10]): < 10 ms; half-life [11]: 52.2 min; microsomal CLint [12]: 116 µL/min/mg
2.2 µM	3.4	NC(=O)c1ccc(N(Cc2ccc(F)cc2)S(=O)(=O)c2ccccc2F)cc1	
4.8 µM	6.2	O=S(=O)(c1ccccc1F)N(Cc1ccccc1)Cc1ccc(F)cc1	
2 µM	4.7	O=S(=O)(c1ccc(F)cc1)N(Cc1ccc(F)cc1)Cc1ccccn1	
4.1 µM	3	O=C1CC[C@@H](CN(Cc2ccc(F)cc2)S(=O)(=O)c2ccc(F)cc2)N1	
8.8 µM	2.7	O=C1CC[C@@H](CN(Cc2ccc(F)cc2)S(=O)(=O)c2ccccc2)N1	
7.2 µM	3.1	O=C1CC[C@@H](CN(Cc2ccc(F)cc2)S(=O)(=O)c2cccc(F)c2)N1	
0.8 µM	3.6	O=C1CC[C@@H](CN(Cc2ccc(F)cc2)S(=O)(=O)c2cccc(Cl)c2)N1	
8.1 µM	4.4	O=C1CC[C@@H](CN(Cc2ccc(F)cc2)S(=O)(=O)c2cc(Cl)cc(Cl)c2)N1	
2 µM	3.1	COc1cccc(S(=O)(=O)N(Cc2ccc(F)cc2)C[C@@H]2CCC(=O)N2)c1	
> 10 µM	3	O=C1CC[C@@H](CN(Cc2ccc(F)cc2)S(=O)(=O)c2cccc3c2OCCO3)N1	
8.7 µM	2	CS(=O)(=O)c1cccc(S(=O)(=O)N(Cc2ccc(F)cc2)C[C@@H]2CCC(=O)N2)c1	
2.6 µM	2.7	N#Cc1cccc(S(=O)(=O)N(Cc2ccc(F)cc2)C[C@@H]2CCC(=O)N2)c1	
> 30 µM	2.6	N#Cc1ccc(S(=O)(=O)N(Cc2ccc(F)cc2)C[C@@H]2CCC(=O)N2)cc1	
> 30 µM	2.5	N#Cc1ccccc1S(=O)(=O)N(Cc1ccc(F)cc1)C[C@@H]1CCC(=O)N1	
8.7 µM	2.5	N#Cc1cccc(S(=O)(=O)N(Cc2ccc(F)cc2)C[C@H]2CCC(=O)N2)c1	
		COc1ccc(S(=O)(=O)N[C@H]2CCCC[C@@H]2OCc2ccccc2)cc1 (racemic)	IC50 [13]: 28 µM
	4.6	COc1ccc(S(=O)(=O)N(Cc2ccccc2)[C@H]2CCCC[C@@H]2O)cc1 (racemic)	IC50 [13]: 2 µM
